Target: T1, BCDIN3D (Homo sapiens, UniProt Q7Z5W3)
T1 sequence (Q7Z5W3 1-292): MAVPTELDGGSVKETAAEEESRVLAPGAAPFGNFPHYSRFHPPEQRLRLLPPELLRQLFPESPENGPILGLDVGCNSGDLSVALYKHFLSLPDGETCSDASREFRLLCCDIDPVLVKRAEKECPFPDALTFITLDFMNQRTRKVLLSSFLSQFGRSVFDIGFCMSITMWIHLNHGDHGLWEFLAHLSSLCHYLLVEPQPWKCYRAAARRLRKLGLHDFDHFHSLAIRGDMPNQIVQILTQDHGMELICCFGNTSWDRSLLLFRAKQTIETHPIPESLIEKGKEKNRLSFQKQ
Assay: BCDIN3D IC50 RFMS (RapidFire) assay with mini-helix
Assay type: biochemical
Conditions: 25 nM enzyme
Method: The following General Methods details the assay conditions for the Biological assays.
BCDIN3D IC50 RFMS Assay with Mini-Helix
The enzymatic assay was performed in a 384-well polypropylene plate in assay buffer with 25 mM Tris pH 8.0, 10 mM DTT, 1 mM EDTA, 0.03% BSA in a final assay volume of 20 μL. The enzyme with a final concentration of 25 nM was pre-incubated with the respective compound at 1% DMSO final assay concentration over 10 min at room temperature. The reaction was initiated by addition of 0.2 μM final assay concentration of mini-helix and 6 μM final concentration of SAM as substrates. After a 1 hr incubation at 37° C., the reaction was terminated with 40 μL of stop solution of 7.5% trichloroactetic acid in water containing 112.5 nM D4-SAH and 30 nM ^13C10-SAH used as internal standards. The SAH product concentrations as well as both internal standards were analyzed by a RapidFire High Throughput Mass Spectrometry System (Agilent Technologies, Santa Clara, Calif.) using an AP14000 triple quadrupole mass spectrometer (AB Sciex Framingham, Mass.).

[1] = mini-helix 0.2 μM and SAM 6 μM as substrates, 1 hr at 37° C.
[2] = mini-helix substrate 0.2 μM, SAM 6 μM

Row | SMILES | IC50 [1] [µM] | IC50 [2] [µM]
1 | [2H]C([2H])([2H])n1ncc2c(NC(C)(C)C)nc(NCC(N)c3ccccc3F)nc21 (stereo in doubt) [Compound 7.16, N6-[(2R)-2-amino-2-(2-fluorophenyl)ethyl]-N4-tert-butyl-1-(trideuteriomethyl)pyrazolo[3,4-d]pyrimidine-4,6-diamine] | 0.069 | 
2 | Cn1ncc2c(Nc3cccc(C(F)(F)F)c3)nc(NCCN)nc21 [Compound 1.02, N6-(2-aminoethyl)-1-methyl-N4-[3-(trifluoromethyl)phenyl]-1H-pyrazolo[3,4-d]pyrimidine-4,6-diamine] | 4.27 | 
3 | COc1ccc(CCNc2nc(NCCN)nc3c2cnn3C)cn1 [Compound 1.07, N6-(2-aminoethyl)-N4-[2-(6-methoxypyridin-3-yl)ethyl]-1-methyl-1H-pyrazolo[3,4-d]pyrimidine-4,6-diamine] | 4.38 | 
4 | COc1ccc(CCNc2nc(NCCN)nc3c2cnn3C)cc1Cl [Compound 1.08, N6-(2-aminoethyl)-N4-[2-(3-chloro-4-methoxyphenyl)ethyl]-1-methyl-1H-pyrazolo[3,4-d]pyrimidine-4,6-diamine] | 2.8 | 
5 | Cn1ncc2c(NCCc3ccc4c(c3)OCO4)nc(NCCN)nc21 [Compound 1.09, N6-(2-aminoethyl)-N4-[2-(2H-1,3-benzodioxol-5-yl)ethyl]-1-methyl-1H-pyrazolo[3,4-d]pyrimidine-4,6-diamine] | 4.07 | 
6 | Cn1ncc2c(NCc3ccc4occc4c3)nc(NCCN)nc21 [Compound 1.10, N6-(2-aminoethyl)-N4-[(1-benzofuran-5-yl)methyl]-1-methyl-1H-pyrazolo[3,4-d]pyrimidine-4,6-diamine] | 5.49 | 
7 | Cn1ncc2c(NCC3CCN(S(=O)(=O)c4ccccc4)CC3)nc(NCCN)nc21 [Compound 1.12, N6-(2-aminoethyl)-N4-{[1-(benzenesulfonyl)piperidin-4-yl]methyl}-1-methyl-1H-pyrazolo[3,4-d]pyrimidine-4,6-diamine] | 9.52 | 
8 | Cn1ncc2c(NCc3ccc4nc[nH]c4c3)nc(NCCN)nc21 [Compound 1.13, N6-(2-aminoethyl)-N4-[(1H-1,3-benzodiazol-5-yl)methyl]-1-methyl-1H-pyrazolo[3,4-d]pyrimidine-4,6-diamine] | 7.8 | 
9 | Cn1ncc2c(NCc3ccc(F)c(Cl)c3)nc(NCCN)nc21 [Compound 1.17, N6-(2-aminoethyl)-N4-[(3-chloro-4-fluorophenyl)methyl]-1-methyl-1H-pyrazolo[3,4-d]pyrimidine-4,6-diamine] | 6.9 | 
10 | Cn1ncc2c(NCc3ccc(Cl)cc3F)nc(NCCN)nc21 [Compound 1.18, N6-(2-aminoethyl)-N4-[(4-chloro-2-fluorophenyl)methyl]-1-methyl-1H-pyrazolo[3,4-d]pyrimidine-4,6-diamine] | 4.75 | 
11 | Cn1ncc2c(NCc3ccc(F)cc3F)nc(NCCN)nc21 [Compound 1.19, N6-(2-aminoethyl)-N4-[(2,4-difluorophenyl)methyl]-1-methyl-1H-pyrazolo[3,4-d]pyrimidine-4,6-diamine] | 6.38 | 
12 | COc1cc(Cl)cc(CNc2nc(NCCN)nc3c2cnn3C)c1 [Compound 1.20, N6-(2-aminoethyl)-N4-[(3-chloro-5-methoxyphenyl)methyl]-1-methyl-1H-pyrazolo[3,4-d]pyrimidine-4,6-diamine] | 3.53 | 
13 | COc1ccc(CNc2nc(NCCN)nc3c2c(C)nn3C)cc1Cl [Compound 1.29, N6-(2-aminoethyl)-N4-[(3-chloro-4-methoxyphenyl)methyl]-1,3-dimethyl-1H-pyrazolo[3,4-d]pyrimidine-4,6-diamine] | 2.9 | 
14 | COc1ccc(C(=O)N2CCC(CNc3nc(NCCN)nc4c3cnn4C)CC2)cc1Cl [Compound 1.37, N6-(2-aminoethyl)-N4-{[1-(3-chloro-4-methoxybenzoyl)piperidin-4-yl]methyl}-1-methyl-1H-pyrazolo[3,4-d]pyrimidine-4,6-diamine] | 7.62 | 
15 | COc1ccc(CNc2nc(NCCN)nc3c2cnn3C)cc1 [Compound 1.39, N6-(2-aminoethyl)-N4-[(4-methoxyphenyl)methyl]-1-methyl-1H-pyrazolo[3,4-d]pyrimidine-4,6-diamine] | 6.91 | 
16 | Cn1ncc2c(NCC3CCN(C(=O)OC(C)(C)C)CC3)nc(NCCN)nc21 [Compound 1.40, tert-butyl 4-[({6-[(2-aminoethyl)amino]-1-methyl-1H-pyrazolo[3,4-d]pyrimidin-4-yl}amino)methyl]piperidine-1-carboxylate] | 6.19 | 
17 | Cn1ncc2c(NCC3CCN(Cc4ccccc4)CC3)nc(NCCN)nc21 [Compound 1.41, N6-(2-aminoethyl)-N4-[(1-benzylpiperidin-4-yl)methyl]-1-methyl-1H-pyrazolo[3,4-d]pyrimidine-4,6-diamine] | 21.1 | 
18 | Cn1ncc2c(NCC3CCN(C(=O)c4ccccc4)CC3)nc(NCCN)nc21 [Compound 1.42, N6-(2-aminoethyl)-N4-[(1-benzoylpiperidin-4-yl)methyl]-1-methyl-1H-pyrazolo[3,4-d]pyrimidine-4,6-diamine] | 5.76 | 
19 | Cn1ncc2c(NC34CC(C3)C4)nc(NCC3(N)CC3)nc21 [Compound 2.38, 6-N-[(1-aminocyclopropyl)methyl]-4-N-(3-bicyclo[1.1.1]pentanyl)-1-methylpyrazolo[3,4-d]pyrimidine-4,6-diamine] |  | 1.71
20 | Cc1ccc(CNc2nc(NC(C)CN)nc3c2cnn3C)cc1Cl (centres unmarked) [Compound 3.02, 6-N-(1-aminopropan-2-yl)-4-N-[(3-chloro-4-methylphenyl)methyl]-1-methylpyrazolo[3,4-d]pyrimidine-4,6-diamine] |  | 6.56
21 | Cc1ccc(CNc2nc(NC[C@H](C)N)nc3c2cnn3C)cc1Cl [Compound 3.03, 6-N-[(2S)-2-aminopropyl]-4-N-[(3-chloro-4-methylphenyl)methyl]-1-methylpyrazolo[3,4-d]pyrimidine-4,6-diamine] |  | 5.71
22 | Cc1ccc(CNc2nc(NC[C@H]3CCCN3)nc3c2cnn3C)cc1Cl [Compound 3.17, 4-N-[(3-chloro-4-methylphenyl)methyl]-1-methyl-6-N-[[(2R)-pyrrolidin-2-yl]methyl]pyrazolo[3,4-d]pyrimidine-4,6-diamine] |  | 9.57
23 | [2H]C([2H])([2H])Nc1nc(NCC(N)c2ccccc2)nc2c1cnn2C (centres unmarked) [Compound 4.37, 6-N-(2-amino-2-phenylethyl)-1-methyl-4-N-(trideuteriomethyl)pyrazolo[3,4-d]pyrimidine-4,6-diamine] |  | 8.01
24 | Cn1ncc2c(NC(C)(C)CCO)nc(NC[C@H](N)c3ccccc3)nc21 [Compound 4.70, 3-[[6-[[(2R)-2-amino-2-phenyl-ethyl]amino]-1-methyl-pyrazolo[3,4-d]pyrimidin-4-yl]amino]-3-methyl-butan-1-ol] |  | 1.3
25 | Cn1ncc2c(NC(C)(C)C)nc(NCC(N)c3ccc(F)cc3)nc21 (centres unmarked) [Compound 5.30, N6-[2-amino-2-(4-fluorophenyl)ethyl]-N4-tert-butyl-1-methyl-1H-pyrazolo[3,4-d]pyrimidine-4,6-diamine] |  | 0.37
26 | Cn1ncc2c(NC(C)(C)C)nc(NCC(N)c3ccc(F)c(F)c3)nc21 (centres unmarked) [Compound 5.31, N6-[2-amino-2-(3,4-difluorophenyl)ethyl]-N4-tert-butyl-1-methyl-pyrazlo[3,4-d]pyrimidine-4,6-diamine] |  | 0.35
